Measured values as given in US4740233A, “Substituted 1,2,4-triazolo[1,5-a]-pyrimidine-2-sulfonamides and compositions and methods of controlling undesired vegetation and suppressing the nitrification of ammonium nitrogen in soil” (The Dow Chemical Company, priority 1986, dated 1988).

Experiments:
cotton = experiment: Preemergent control of plant species; format: in vivo, Gossypium spp.; conditions: Gossypium hirsutum, pre-emergence, 336 h; 0.25 lb/acre; read-out: percent preemergent control
Summary of the method: (§1)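 Preemergent application of aqueous emulsions at rates given in the table, uniformly over seeded greenhouse soil. Untreated (water) beds as comparison; rating after 2 weeks as reduction in growth.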

rape = experiment: Preemergent control of plant species; format: in vivo, Brassica napus; conditions: Brassica napus, pre-emergence, 336 h; 0.25 lb/acre; read-out: percent preemergent control
Summary of the method: as §1

soybean = experiment: Preemergent control of plant species; format: in vivo, Glycine max.; conditions: Glycine max, pre-emergence, 336 h; 0.25 lb/acre; read-out: percent preemergent control
Summary of the method: as §1

sugar beet = experiment: Preemergent control of plant species; format: in vivo, Beta saccharifera; conditions: Beta vulgaris, pre-emergence, 336 h; 0.25 lb/acre; read-out: percent preemergent control
Summary of the method: as §1

jimsonweed = experiment: Preemergent control of plant species; format: in vivo, Datura stramonium; conditions: Datura stramonium, pre-emergence, 336 h; 0.25 lb/acre; read-out: percent preemergent control
Summary of the method: as §1

annual morning glory = experiment: Preemergent control of plant species; format: in vivo, Ipomoea spp.; conditions: Ipomoea, pre-emergence, 336 h; 0.25 lb/acre; read-out: percent preemergent control
Summary of the method: as §1

velvetleaf = experiment: Preemergent control of plant species; format: in vivo, Abutilon theophrasti; conditions: Abutilon theophrasti, pre-emergence, 336 h; 0.25 lb/acre; read-out: percent preemergent control
Summary of the method: as §1

corn = experiment: Preemergent control of plant species; format: in vivo, Zea mays; conditions: Zea mays, pre-emergence, 336 h; 0.25 lb/acre; read-out: percent preemergent control
Summary of the method: as §1

rice = experiment: Preemergent control of plant species; format: in vivo, Oryza sativa; conditions: Oryza sativa, pre-emergence, 336 h; 0.25 lb/acre; read-out: percent preemergent control
Summary of the method: as §1

sorghum = experiment: Preemergent control of plant species; format: in vivo, Sorghum vulgare; conditions: Sorghum, pre-emergence, 336 h; 0.25 lb/acre; read-out: percent preemergent control
Summary of the method: as §1

wheat = experiment: Preemergent control of plant species; format: in vivo, Triticum aestivum; conditions: Triticum aestivum, pre-emergence, 336 h; 0.25 lb/acre; read-out: percent preemergent control
Summary of the method: as §1

barnyardgrass = experiment: Preemergent control of plant species; format: in vivo, Echinochloa crusgalli; conditions: Echinochloa crus-galli, pre-emergence, 336 h; 0.25 lb/acre; read-out: percent preemergent control
Summary of the method: as §1

johnson grass = experiment: Preemergent control of plant species; format: in vivo, Sorghum halepense; conditions: Sorghum halepense, pre-emergence, 336 h; 0.25 lb/acre; read-out: percent preemergent control
Summary of the method: as §1

wild oats = experiment: Preemergent control of plant species; format: in vivo; conditions: Avena fatua, pre-emergence, 336 h; 0.25 lb/acre; read-out: percent preemergent control
Summary of the method: as §1

yellow foxtail = experiment: Preemergent control of plant species; format: in vivo, Setaria lutescens; conditions: Setaria, pre-emergence, 336 h; 0.25 lb/acre; read-out: percent preemergent control
Summary of the method: as §1

yellow nutsedge = experiment: Preemergent control of plant species; format: in vivo, Cyperus esculentus; conditions: Cyperus, pre-emergence, 336 h; 0.25 lb/acre; read-out: percent preemergent control
Summary of the method: as §1

[1] = tested on: nitrification of ammonium nitrogen; experiment: Suppression of nitrification of ammonium nitrogen in soil; conditions: 27° C.
Summary of the method: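 Soil (20 g) moistened to its 1/3 bar tension value, mixed with test chemical and incubated sealed for two weeks at 27° C. Nitrate extracted with ammonium sulfate solution and measured by nitrate-specific ion electrode; value given as % NH4-N remaining.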

| SMILES | plant injury at 280.212 g/ha (cotton) | plant injury at 280.212 g/ha (rape) | plant injury at 280.212 g/ha (soybean) | plant injury at 280.212 g/ha (sugar beet) | pest or weed control at 280.212 g/ha (jimsonweed) | pest or weed control at 280.212 g/ha (annual morning glory) | pest or weed control at 280.212 g/ha (velvetleaf) | plant injury at 280.212 g/ha (corn) | plant injury at 280.212 g/ha (rice) | plant injury at 280.212 g/ha (sorghum) | plant injury at 280.212 g/ha (wheat) | pest or weed control at 280.212 g/ha (barnyardgrass) | pest or weed control at 280.212 g/ha (johnson grass) | pest or weed control at 280.212 g/ha (wild oats) | pest or weed control at 280.212 g/ha (yellow foxtail) | pest or weed control at 280.212 g/ha (yellow nutsedge) | % NH4-N Remaining After 2 Weeks Incubation ([1]; 0.06 ppm) | % NH4-N Remaining After 2 Weeks Incubation ([1]; 0.25 ppm) | % NH4-N Remaining After 2 Weeks Incubation ([1]; 1 ppm) | % NH4-N Remaining After 2 Weeks Incubation ([1]; 4 ppm) |
| --- | --- | --- | --- | --- | --- | --- | --- | --- | --- | --- | --- | --- | --- | --- | --- | --- | --- | --- | --- | --- |
| COc1ccn2nc(S(=O)(=O)Nc3c(Cl)cccc3Cl)nc2n1 [Compound 208] | 100% | 100% | 45% | 100% | 90% | 40% | 90% | 0% | 0% | 30% | 0% | 0% | 0% | 0% | 0% | 60% | 38% | 38% | 42% | 37% |
| CC(C)=NOC(=O)c1cccc(C)c1NS(=O)(=O)c1nc2nc(C)cc(C)n2n1 [Compound 78] | 0% | 100% | 30% | 70% | 0% | 0% | 30% | 10% | 40% | 0% | 40% | 20% | 0% | 30% | 20% | 50% | 74% | 32% | 53% | 72% |
| COC(=O)c1cccc(C)c1NS(=O)(=O)c1nc2nc(OC)c(C)cn2n1 [Compound 216] | 100% | 20% | 70% | 100% | 100% | 90% | 100% | 100% | 90% | 100% | 100% | 75% | 100% | 100% | 100% | 70% |  |  |  |  |
| Cc1ccn2nc(S(=O)(=O)N(C(=O)C=Cc3ccccc3)c3c(F)cccc3F)nc2n1 [Compound 293] | 100% | 100% | 10% | 100% | 100% | 70% | 100% | 60% | 90% | 100% | 60% | 100% | 95% | 95% | 100% | 100% |  |  |  |  |
| Cc1ccn2nc(S(=O)(=O)N(C(=O)CCCl)c3c(F)cccc3F)nc2n1 [Compound 282] | 100% | 100% | 50% | 100% | 100% | 80% | 100% | 95% | 100% | 100% | 70% | 70% | 100% | 100% | 100% | 100% |  |  |  |  |
| C=CCOC(=O)c1cccc(C)c1NS(=O)(=O)c1nc2nc(C)cc(C)n2n1 [Compound 76] | 60% | 100% | 95% | 100% | 100% | 90% | 100% | 100% | 70% | 90% | 100% | 70% | 80% | 90% | 90% | 100% | 34% | 52% | 74% | 86% |
| COc1nc2nc(S(=O)(=O)Nc3c(F)cccc3F)nn2cc1C [Compound 214] | 100% | 100% | 100% | 100% | 100% | 100% | 100% | 100% | 100% | 100% | 100% | 100% | 100% | 100% | 100% | 100% |  |  |  |  |
| Cc1cccc([N+](=O)[O-])c1NS(=O)(=O)c1nc2nccc(C)n2n1 [Compound 184] | 100% | 98% | 50% | 100% | 98% | 80% | 100% | 0% | 0% | 95% | 0% | 0% | 30% | 0% | 80% | 80% |  |  |  |  |
| Cc1ccn2nc(S(=O)(=O)N(C(=O)CC(C)C)c3c(F)cccc3F)nc2n1 [Compound 284] | 100% | 100% | 20% | 100% | 100% | 80% | 100% | 85% | 100% | 100% | 100% | 100% | 100% | 90% | 100% | 100% |  |  |  |  |
